Source: US5338736A, “Angiotensin II receptor blocking 2,3,6-substituted quinazolinones” (American Cyanamid Company, priority 1993, dated 1994)
Several values for one entry are separate records, joined by “and”; a condition that tells them apart may be missing. Equal entries are not always repeated.

Assays:
Angiotensin II Receptor = biological target: T1, Angiotensin II Receptor (Bos taurus, UniProt P25104); test: Receptor Binding Assay: competition with [^125 I](Sar^1, Ile^8)AngII on adrenal cortex microsomal membranes; set-up: species or system beef; settings: for IC50: beef adrenal cortex membranes, [^125 I](Sar^1, Ile^8)AngII, 60 min, room temperature, pH 7.4
T1 construct: The brownish tissue forming the adrenal cortex is scraped off and finely minced with scissors before homogenization; tissue Maxwell-Cohen (local slaughter house); host or cells: beef adrenal cortex, microsomal membranes
T1 sequence (P25104 1-359): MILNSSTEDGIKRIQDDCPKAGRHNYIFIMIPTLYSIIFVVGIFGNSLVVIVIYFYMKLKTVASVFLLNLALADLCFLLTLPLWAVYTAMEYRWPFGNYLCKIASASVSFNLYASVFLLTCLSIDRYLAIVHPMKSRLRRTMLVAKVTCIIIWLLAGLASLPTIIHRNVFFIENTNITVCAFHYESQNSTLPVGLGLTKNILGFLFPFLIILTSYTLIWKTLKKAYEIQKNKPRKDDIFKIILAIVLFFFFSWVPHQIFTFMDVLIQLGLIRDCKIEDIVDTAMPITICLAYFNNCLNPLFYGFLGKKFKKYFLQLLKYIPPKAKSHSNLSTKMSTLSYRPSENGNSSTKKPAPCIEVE
Text: Beef adrenals are obtained from a local slaughter house (Maxwell-Cohen). […] All unlabeled AngII analogs, Dimethylsulfoxide (DMSO), nucleotides, bovine serum albumin (BSA) are purchased from Sigma Chemical Co., St. Louis, Mo. U.S.A.
Approximately sixteen (16) to twenty (20) beef adrenal glands are processed as follows: fresh adrenal glands received on crushed ice are cleaned of fatty tissues and the tough membranes encapsulating the glands are removed and discarded. The brownish tissue forming the adrenal cortex is scraped off and finely minced with scissors before homogenization. Care is taken to avoid contamination with medullary tissue during dissection. The scraped cortices are suspended in twenty volumes of an ice-cold buffer medium consisting of 10 mM Tris.HCl (pH 7.4 at 22° C.) and containing 1.0 mM EDTA and 0.2M sucrose. Unless otherwise indicated, all subsequent operations are done at 4° C. […] The homogenate is centrifuged first at low speed (3,000× g) for 10 min. The resulting pellet is discarded and the supernatant fluid recentrifuged at 10,000× g for 15 minutes to give a P2 pellet. […] The translucent final pellet is harvested and combined in a small volume (20-50.0 ml) of 50.0 mM Tris.HCl buffer, pH 7.2. […] The pelleted membrane is reconstituted in 50.0 mM Tris.HCl buffer containing 0.1 mM of phenylmethylsulfonyl fluoride (PMSF) to give approximately a protein concentration of 2.5 mg per ml of tissue suspension. The membrane preparation is finally aliquoted in 1.0 ml volumes and stored at -70° C. until use in the binding assays.
Assays are performed in triplicate. The wells are left undisturbed for 60 min. at room temperature. […] The filter discs are washed with 10×1.0 ml of cold 0.9% NaCl to remove unbound ligand. […] This method is routinely used. The filters are removed from the filter grid and counted in a Parkard® Cobra Gamma Counter for 1 min. (Packard Instrument Co., Downers Grove, Ill., U.S.A.).

[1] = test system: angiotensin II vasopressor response; test: AII challenge: inhibition of angiotensin II vasopressor response in conscious SHR; type: in vivo, rat (Male Okamoto-Aoki SHR); settings: 3 mg/kg iv; for % Inhibition / Average Change: n = 2
Text: By administering a compound of this invention to a rat, and then challenging with angiotensin II, a blockage of the vasopressor response is realized.
Conscious Male Okamoto-Aoki SHR, 16-20 weeks old, weighing approximately 330 g are purchased from Charles River Labs (Wilmington, Mass.). Conscious rats are restrained in a supine position with elastic tape. The area at the base of the tail is locally anesthetized by subcutaneous infiltration with 2% procaine. The ventral caudal artery and vein are isolated, and a cannula made of polyethylene (PE) 10-20 tubing (fused together by heat) is passed into the lower abdominal aorta and vena cava, respectively. The cannula is secured, heparinized (1,000 I.U./ml), sealed and the wound is closed. The animals are placed in plastic restraining cages in an upright position. The cannula is attached to a Statham P23Db pressure transducer, and pulsatile blood pressure is recorded to 10-15 minutes with a Gould Brush recorder. (Chan et al., (Drug Development Res., 18:75-94, 1989).
Angiotensin II (human sequence, Sigma Chem. Co., St. Louis, Mo.) of 0.05 and 0.1 μg/kg i.v. is injected into all rats (predosing response). Then a test compound, vehicle or a known angiotensin II antagonist is administered i.v., i.p. or orally to each set of rats. The two doses of angiotensin II are given to each rat again at 30. 60. 90. 120. 180. 240 and 300 minutes post dosing the compound or vehicle. The vasopressor response of angiotensin II is measured for the increase in systolic blood pressure in mmHg. The percentage of antagonism or blockade of the vasopressor response of angiotensin II by a compound is calculated using the vasopressor response (increase in systolic blood pressure) of angiotensin II of each rat predosing the compound as 100%. A compound is considered active if at 30 mg/kg i.v. it antagonized at least 50% of the response.

[2] = AII 0.05 mcg/kg, 30 min post dose
[3] = AII 0.05 mcg/kg, 60 min post dose
[4] = AII 0.05 mcg/kg, 90 min post dose
[5] = AII 0.05 mcg/kg, 120 min post dose
[6] = AII 0.05 mcg/kg, 180 min post dose
[7] = AII 0.05 mcg/kg, 240 min post dose
[8] = AII 0.05 mcg/kg, 300 min post dose
[9] = AII 0.1 mcg/kg, 30 min post dose
[10] = AII 0.1 mcg/kg, 60 min post dose
[11] = AII 0.1 mcg/kg, 90 min post dose
[12] = AII 0.1 mcg/kg, 120 min post dose
[13] = AII 0.1 mcg/kg, 180 min post dose
[14] = AII 0.1 mcg/kg, 240 min post dose
[15] = AII 0.1 mcg/kg, 300 min post dose

`CCCCc1nc2ccc(C3CCC4CCCC4O3)cc2c(=O)n1Cc1ccc(-c2ccccc2-c2nn[nH]n2)cc1` (stereo not shown) [Example 10] gave an IC50 (Angiotensin II Receptor) of 0.105 µM.

For `CCCCc1nc2ccc(C3CCC4CCCCC4O3)cc2c(=O)n1Cc1ccc(-c2ccccc2-c2nn[nH]n2)cc1` (stereo not shown) [Example 11], the IC50 (Angiotensin II Receptor) was 0.132 µM, the “Change (response to AII, individual rat)” value [1, 2] was 15 mmHg and 20 mmHg and the “% Inhibition” value [1, 2] was 59%. For the same compound, the “Average Change” value [1, 2] was 17.5 mmHg, the “Change (response to AII, individual rat)” value [1, 3] was 30 mmHg and 15 mmHg and the “% Inhibition” value [1, 3] was 47%. The “Average Change” value [1, 3] was 22.5 mmHg, the “Change (response to AII, individual rat)” value [1, 4] was 30 mmHg and 10 mmHg and the “% Inhibition” value [1, 4] was 53%. The “Average Change” value [1, 4] was 20 mmHg, the “Change (response to AII, individual rat)” value [1, 5] was 10 mmHg and the “% Inhibition” value [1, 5] was 76%. For the same compound, the “Average Change” value [1, 5] was 10 mmHg, the “Change (response to AII, individual rat)” value [1, 6] was 30 mmHg and 35 mmHg and the “% Inhibition” value [1, 6] was 24%. For the same compound, the “Average Change” value [1, 6] was 32.5 mmHg, the “Change (response to AII, individual rat)” value [1, 7] was 20 mmHg and 7 mmHg and the “% Inhibition” value [1, 7] was 68%. For the same compound, the “Average Change” value [1, 7] was 13.5 mmHg, the “Change (response to AII, individual rat)” value [1, 8] was 30 mmHg and 15 mmHg and the “% Inhibition” value [1, 8] was 47%. The “Average Change” value [1, 8] was 22.5 mmHg, the “Change (response to AII, individual rat)” value [1, 9] was 10 mmHg and 30 mmHg and the “% Inhibition” value [1, 9] was 65%. The “Average Change” value [1, 9] was 20 mmHg, the “Change (response to AII, individual rat)” value [1, 10] was 20 mmHg and 10 mmHg and the “% Inhibition” value [1, 10] was 74%. For the same compound, the “Average Change” value [1, 10] was 15 mmHg, the “Change (response to AII, individual rat)” value [1, 11] was 30 mmHg and 25 mmHg and the “% Inhibition” value [1, 11] was 52%. For the same compound, the “Average Change” value [1, 11] was 27.5 mmHg, the “Change (response to AII, individual rat)” value [1, 12] was 15 mmHg and 25 mmHg and the “% Inhibition” value [1, 12] was 65%. The “Average Change” value [1, 12] was 20 mmHg, the “Change (response to AII, individual rat)” value [1, 13] was 35 mmHg and 20 mmHg and the “% Inhibition” value [1, 13] was 52%. The “Average Change” value [1, 13] was 27.5 mmHg, the “Change (response to AII, individual rat)” value [1, 14] was 35 mmHg and 30 mmHg and the “% Inhibition” value [1, 14] was 43%. For the same compound, the “Average Change” value [1, 14] was 32.5 mmHg, the “Change (response to AII, individual rat)” value [1, 15] was 35 mmHg and 30 mmHg and the “% Inhibition” value [1, 15] was 43%. For the same compound, the “Average Change” value [1, 15] was 32.5 mmHg, the “Response After AII (individual rat)” value ([1]; after AII 0.05 mcg/kg, 30 min post dose) was 260 mmHg and 265 mmHg and the “Response After AII (individual rat)” value ([1]; after AII 0.05 mcg/kg, 60 min post dose) was 260 mmHg and 255 mmHg. For the same compound, the “Response After AII (individual rat)” value ([1]; after AII 0.05 mcg/kg, 90 min post dose) was 265 mmHg and 245 mmHg, the “Response After AII (individual rat)” value ([1]; after AII 0.05 mcg/kg, 120 min post dose) was 255 mmHg and 240 mmHg and the “Response After AII (individual rat)” value ([1]; after AII 0.05 mcg/kg, 180 min post dose) was 265 mmHg and 260 mmHg. For the same compound, the “Response After AII (individual rat)” value ([1]; after AII 0.05 mcg/kg, 240 min post dose) was 250 mmHg and 240 mmHg, the “Response After AII (individual rat)” value ([1]; after AII 0.05 mcg/kg, 300 min post dose) was 275 mmHg and 255 mmHg and the “Response After AII (individual rat)” value ([1]; after AII 0.1 mcg/kg, 30 min post dose) was 260 mmHg and 280 mmHg. For the same compound, the “Response After AII (individual rat)” value ([1]; after AII 0.1 mcg/kg, 60 min post dose) was 260 mmHg and 255 mmHg, the “Response After AII (individual rat)” value ([1]; after AII 0.1 mcg/kg, 90 min post dose) was 285 mmHg and 260 mmHg and the “Response After AII (individual rat)” value ([1]; after AII 0.1 mcg/kg, 120 min post dose) was 255 mmHg and 250 mmHg. The “Response After AII (individual rat)” value ([1]; after AII 0.1 mcg/kg, 180 min post dose) was 270 mmHg and 255 mmHg, the “Response After AII (individual rat)” value ([1]; after AII 0.1 mcg/kg, 240 min post dose) was 285 mmHg and 255 mmHg and the “Response After AII (individual rat)” value ([1]; after AII 0.1 mcg/kg, 300 min post dose) was 275 mmHg. The “Control Before AII (individual rat)” value ([1]; before AII 0.05 mcg/kg, 30 min post dose) was 245 mmHg, the “Control Before AII (individual rat)” value ([1]; before AII 0.05 mcg/kg, 60 min post dose) was 230 mmHg and 240 mmHg and the “Control Before AII (individual rat)” value ([1]; before AII 0.05 mcg/kg, 90 min post dose) was 235 mmHg. For the same compound, the “Control Before AII (individual rat)” value ([1]; before AII 0.05 mcg/kg, 120 min post dose) was 245 mmHg and 230 mmHg, the “Control Before AII (individual rat)” value ([1]; before AII 0.05 mcg/kg, 180 min post dose) was 235 mmHg and 225 mmHg and the “Control Before AII (individual rat)” value ([1]; before AII 0.05 mcg/kg, 240 min post dose) was 230 mmHg and 233 mmHg. The “Control Before AII (individual rat)” value ([1]; before AII 0.05 mcg/kg, 300 min post dose) was 245 mmHg and 240 mmHg, the “Control Before AII (individual rat)” value ([1]; before AII 0.1 mcg/kg, 30 min post dose) was 250 mmHg and the “Control Before AII (individual rat)” value ([1]; before AII 0.1 mcg/kg, 60 min post dose) was 240 mmHg and 245 mmHg. The “Control Before AII (individual rat)” value ([1]; before AII 0.1 mcg/kg, 90 min post dose) was 255 mmHg and 235 mmHg, the “Control Before AII (individual rat)” value ([1]; before AII 0.1 mcg/kg, 120 min post dose) was 240 mmHg and 225 mmHg and the “Control Before AII (individual rat)” value ([1]; before AII 0.1 mcg/kg, 180 min post dose) was 235 mmHg. For the same compound, the “Control Before AII (individual rat)” value ([1]; before AII 0.1 mcg/kg, 240 min post dose) was 250 mmHg and 225 mmHg and the “Control Before AII (individual rat)” value ([1]; before AII 0.1 mcg/kg, 300 min post dose) was 240 mmHg and 245 mmHg.

In the case of “[^125 I](Sar^1, Ile^8)AngII [reference compound]”, the “Specific binding for [^125 I](Sar^1, Ile^8)AngII” value (Angiotensin II Receptor; non-specific binding with 1.0 μM unlabeled (Sar^1, Ile^8)AngII) is reported as “greater than 90%”.
